Holding throughout (assay type): biochemical
For test [1], the target named is T1, AmcH (Streptomyces novoguineensis, UniProt A0A4Y5QVH7).
T1 construct: AmcH purified from Streptomyces albus G153; AmcB (holo form, with phosphopantetheine arm) from E. coli BL21(DE3), pET26b(+), is the acyl acceptor; with Acyl carrier protein AmcB
T1 sequence (A0A4Y5QVH7 1-460): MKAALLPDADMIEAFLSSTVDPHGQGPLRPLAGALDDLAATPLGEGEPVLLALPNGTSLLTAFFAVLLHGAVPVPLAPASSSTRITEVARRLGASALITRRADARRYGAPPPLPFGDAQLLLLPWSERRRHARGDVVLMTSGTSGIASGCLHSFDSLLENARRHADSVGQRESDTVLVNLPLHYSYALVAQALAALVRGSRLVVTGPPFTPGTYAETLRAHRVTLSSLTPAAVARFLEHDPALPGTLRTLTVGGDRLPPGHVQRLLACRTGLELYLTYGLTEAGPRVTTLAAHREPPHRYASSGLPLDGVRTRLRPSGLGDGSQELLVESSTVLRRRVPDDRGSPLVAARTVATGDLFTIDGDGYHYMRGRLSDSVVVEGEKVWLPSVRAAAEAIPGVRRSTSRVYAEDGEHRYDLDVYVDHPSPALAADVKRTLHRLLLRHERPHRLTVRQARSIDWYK
As to the kind of experiment: LC-ESI-HRMS of acyl-AmcB. As to conditions: 200 uM AmcB, 0.2 uM AmcH, 1 mM 2-OG, 5 mM ATP, 25 mM MgCl2, 50 mM Tris-HCl pH 8.0, 30 °C, 1 h.

For test [2], the target named is T1, AmcH. Briefly: HPLC of ATP consumption and AMP formation. As to conditions: 500 uM AmcB, 1 uM AmcH, 1 mM 2-OG, 2 mM ATP, 25 mM MgCl2, pH 8.0, 30 °C.
Test [3] addresses T2, sFabI (Streptomyces albidoflavus, UniProt D6BBL6).
T2 construct: gene fabI; C-terminal His tag, pET26b(+), E. coli BL21(DE3)
T2 sequence (D6BBL6 1-259): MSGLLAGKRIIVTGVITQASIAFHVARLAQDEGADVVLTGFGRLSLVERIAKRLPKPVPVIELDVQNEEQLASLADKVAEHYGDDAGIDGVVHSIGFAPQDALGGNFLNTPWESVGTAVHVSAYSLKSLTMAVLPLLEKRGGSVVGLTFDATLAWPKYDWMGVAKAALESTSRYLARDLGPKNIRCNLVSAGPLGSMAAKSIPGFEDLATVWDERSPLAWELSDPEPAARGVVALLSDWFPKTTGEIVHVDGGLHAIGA
As to the kind of experiment: PPant ejection assay / LC-HRMS of 4-AmcB formation. As to conditions: 1 mM NADH, 200 uM gel-filtered 3-AmcB, 8 uM enzyme, 20 mM Tris-HCl pH 8.0, 150 mM NaCl, 30 °C, 1 h.

The target of test [4] is T3, eFabI (Escherichia coli, UniProt P0AEK4).
T3 construct: gene fabI; C-terminal His tag, pET26b(+), E. coli BL21(DE3)
T3 sequence (P0AEK4 2-262): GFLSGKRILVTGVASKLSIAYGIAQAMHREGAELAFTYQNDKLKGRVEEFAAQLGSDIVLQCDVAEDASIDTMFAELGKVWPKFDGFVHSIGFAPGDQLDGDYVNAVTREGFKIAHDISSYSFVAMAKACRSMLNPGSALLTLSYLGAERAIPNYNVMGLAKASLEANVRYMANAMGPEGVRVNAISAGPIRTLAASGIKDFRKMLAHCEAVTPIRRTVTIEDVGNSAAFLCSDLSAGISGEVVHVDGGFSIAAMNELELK
Briefly: PPant ejection assay / LC-HRMS of 4-AmcB formation. As to conditions: 1 mM NADH, 200 uM gel-filtered 3-AmcB, 8 uM enzyme, 20 mM Tris-HCl pH 8.0, 150 mM NaCl, 30 °C, 1 h.

Data on three compounds can be found in article PMC10698177, “Discovery of type II polyketide synthase-like enzymes for the biosynthesis of cispentacin” (Nature Communications, 2023).

In the case of `O=C(O)CCC(=O)C(=O)O` [2-OG], the “LC-ESI-HRMS of acyl-AmcB” value in test [1] is “AmcH loads only 2-OG onto AmcB to form 2-oxoglutaryl-AmcB”. As for `Nc1ncnc2c1ncn2[C@@H]1O[C@H](COP(=O)(O)OP(=O)(O)OP(=O)(O)O)[C@@H](O)[C@H]1O` [ATP], in test [2], the “HPLC of ATP consumption and AMP formation” value is “consumption of ATP and the generation of AMP occurred in both AmcB- and 2-OG-dependent manners”. For `NC(=O)C1=CN([C@@H]2O[C@H](COP(=O)(O)OP(=O)(O)OC[C@H]3O[C@@H](n4cnc5c(N)ncnc54)[C@H](O)[C@@H]3O)[C@@H](O)[C@H]2O)C=CC1` [NADH], the “PPant ejection assay / LC-HRMS of 4-AmcB formation” value was “eFabI and sFabI specifically catalyze the reduction of 3-AmcB to yield 4-AmcB” in test [3]; “eFabI and sFabI specifically catalyze the reduction of 3-AmcB to yield 4-AmcB” in test [4].
